# Laboratory results reported in patent US7355074B2, “Compounds having aromatic rings and side-chain amide-functionality and a method for transporting monovalent anions across biological membranes using the same” (The University of Maryland, priority 2003, dated 2008).
# Tests used:
# [1] = tested on: HEK-293 cells; test: patch-clamp recordings in whole-cell configuration; type: cell-based
# Text: FIG. 11 illustrates voltage clamp recordings in whole cell configuration (HEK-293 cells). (A) Current across membrane after application of calixarene tetrabutylamide 2 at different voltages. From bottom to top, trace denotes currents at −120, −80, −40, 0, 40, 80 and 120 mV, respectively, with saline physiological buffer being used (B) Current across membrane in a sodium glutamate isosmotic-buffer at different voltages. The potential was varied over a range of −120 through +120 mV, with a 40 mV step. (C) Current across membrane in Na2SO4 isosmotic buffer at different voltages. The potential was varied over a range of −120 through +120 mV, with a 40 mV steps. (D) Current across the membrane at +120 mV in application/wash cycle traces from bottom to top denote current in absence of 2, current after first application of 2 (a), following by […] lavage, second application (b), and third application (c). Trace on top denotes current after lavage without application of 2. Baselines of the first and last traces shifted for clarity, saline physiological buffer used.
# Electrophysiological Recordings. Patch-Clamp Experiments. HEK 293 cells, plated in […] dishes containing 10 mL of the growth media were maintained at 37° C. with 5% CO2 in the incubator. Growth medium for HEK 293 cells was minimum essential medium supplemented with 10% fetal bovine serum, 100 U mL penicillin and 100 μg/mL streptomycin. Electrophysiological recordings were performed in the whole-cell configuration of the patch-clamp technique using a DAGAN 8900 amplifier (Dagan Corp., Minneapolis, Minn.). The patch electrodes, pulled from borosilicate class capillaries, had resistance of 3-4 MΩ when filled with internal solution containing (in mM): CsCl 110: tetraethylammonium chloride, 20; MgATP. 5:EGTA. 14: HEPES, 20 and titrated to pH 7.4 with CsOH. Approximately 90% of electrode resistance was compensated electronically, so that effective series resistance was less than 1 MΩ. HEK cells were used for experiments 2 to 4 days after plating the cells on the cover sips. Generation of the voltage-clamp protocols and data acquisition were carried out using PCLAMP software (Axon instruments, Inc., Burlingame, Calif.). Sampling frequency was 0.5-2.0 kHz, and current signals were filtered at […] before digitization and storage. All experiments were performed at room temperature (23-25° C.). […] Cells plated on plastic cover slips 915 mm round thermanox, Nunc, Inc., Napierville, Ill.) were transferred to an experimental chamber mounted on the stage of an inverted microscope (Diaphot, Nikon, Nagano, Japan) and were bathed in a solution containing (in mM):NaCl, 137:CaCl2, 2; KCl. 5.4; HEPES, 10; glucose, 10:glucose, 10; MgCl2, 1 (pH 7.4 adjusted with NaOH). The experimental chamber was constantly perfused at a rate of about 1 mL/min with a control bathing solution. In solutions buffered on the cell under recording KCl was omitted and in some experiments NaCl was replaced by isoosmotic amounts of Na2SO4 or Na glutamate. Servo-controlled miniature solenoid valves were used for rapid switching between control and test solutions (delay in solution change was <20 ms). Compound 2 was dissolved in DMSO, and DMSO was added in an equal amount to the control and test solutions.
# [2] = intravesicular pH of LUVs experiencing a Cl- gradient (calixarene amides); type: biochemical; settings: NaCl-loaded LUVs in isosmotic Na2SO4 buffer
# Experimental: FIG. 8 illustrates changes in intravesicular pH upon addition of calixarene tetrabutylamide and calixarene octabutylamide to NaCl^+ loaded vesicles suspended in a sulfate phosphate buffer (emission of HPTS is used to monitor the pH changes in LUVs). At t=60 s, 20 μL of 500 μM of calixarene tetrabutylamide 2 (top trace) or the octabutylamide 3 (bottom trace) was added to 1.95 mL of a LUV suspension to give 1:100 ligand:lipid molar ratio. At t=500 s, 40 μL of 5% Triton X-100 was added. Intravesicular pH values were obtained as a function of the ratio of HPTS emission intensities at 510 nm, when excited at […]. The calibration was performed by measuring the HPTS emission intensities and the pH values of a […] HPTS solution in 10 mM phosphate buffer containing 100 mM NaCl. The calibration equation obtained (pH=1.1684×log (I0I1)+6.9807, r=0.998, where I0 is the emission intensity with excitation at […]) was used to convert the emission intensities into actual pH values.
# The pH reached its maximum 250 s after addition of 2 and held constant until the liposomes were lysed with detergent. […] In effect, compound 2 moves […] along with Cl^− down the chloride gradient, consequently building a pH gradient across the membrane. Therefore, NaCl filled vesicles lose Cl^− and H^+ upon addition of 2 and become more alkaline.
# Calcein-Release Assay. Calcein-loaded vesicles (100 μL of the stock solution), filled with a saline phosphate buffer (10 mM sodium phosphate, pH 6.4, […] NaCl), were suspended in 1.85 mL of an isoosmotic phosphate sulfate buffer (10 mM sodium phosphate, pH 6.4^−75 mM (Na2SO4) and placed into a fluorimetric cell. HPTS emission at 510 nm was monitored with excitation wavelengths at 403 and 460 nm simultaneously. During the experiment, 20 μL of a 0-500 μM THF solution of the compound of interest was added through an injection port. Intravesicular pH values were obtained as a function of the ratio of HPTS emission intensities at 510 nm, when excited at 403 and 460 nm. […]
smiles,measurement,setting,value
"CCCCNC(=O)COc1c2cccc1Cc1cccc(c1OCC(=O)NCCCC)Cc1cccc(c1OCC(=O)NCCCC)Cc1cccc(c1OCC(=O)NCCCC)C2 [calix[4]arene tetrabutylamide 2, Calix[4]arene tetrabutylamide]",lavage time after which the current returned to the baseline,[1]; +120 mV,1.5 min
same,cells that responded at +80 mV,[1]; NaCl buffer,3 of 15
same,damage to the cell membrane,[1]; application/wash cycle,did not damage the cell membrane
same,holding potential at which current across the cell membrane was caused,"[1]; extracellular application, NaCl buffer",+120 mV
same,current in isosmotic Na glutamate or Na2SO4 buffer,[1]; holding potentials between −120 and +120 mV,no current across the membrane
same,change of intravesicular pH / pH gradient formation,[2],rapid increase in intravesicular pH
same,time to maximum intravesicular pH after addition,[2],250 s
